{
  "source": "patent US7935815B2",
  "about": "“Imidazoyl pyridine compounds and salts thereof” (Eisai R&D Management Co., Ltd., priority 2007, dated 2011)",
  "note": "pIC50: −log10 of the molar value.",
  "data": [
    {"system": "Aβ42 production", "assay": "Quantification of Aβ peptide in culture of neurons from rat fetus brain (Aβ ELISA)", "type": "cell-based", "details": "Rattus norvegicus, Neuron, 72 h, rat primary neuronal culture (embryonic day 18 Wistar rat cerebral cortex); cultured three days after addition of compound; Aβx-42 ELISA of the medium; read-out: Aβ42 production reducing effect IC50", "procedure": "(§1) Quantification of Aβ Peptide in Culture of Neurons from Rat Fetus Brain\n(§2) (1) Rat Primary Neuronal Culture\n(§3) Primary neuronal cultures were prepared from the cerebral cortex of embryonic day 18 Wistar rats (Charles River Japan, Yokohama, Japan). Specifically, the embryos were aseptically removed from pregnant rats under ether anesthesia. The brain was isolated from the embryo and immersed in an ice-cold L-15 medium (Invitrogen Corp. Cat #11415-064, Carlsbad, Calif., USA, or SIGMA L1518, for example). The cerebral cortex was collected from the isolated brain under a stereoscopic microscope. The cerebral cortex fragments collected were enzymatically treated in an enzyme solution containing 0.25% trypsin (Invitrogen Corp. Cat #15050-065, Carlsbad, Calif., USA) and 0.01% DNase (Sigma D5025, St. Louis, Mo., USA) at 37° C. for 30 minutes to disperse the cells. Here, the enzymatic reaction was stopped by adding inactivated horse serum to the solution. The enzymatically treated solution was centrifuged at 1,500 rpm for five minutes to remove the supernatant. 5 to 10 ml of a medium was added to the resulting cell mass. Neurobasal medium (Invitrogen Corp. Cat #21103-049, Carlsbad, Calif., USA) supplemented with 2% B27 supplement (Invitrogen Corp. Cat #17504-044, Carlsbad, Calif., USA), 25 μM 2-mercaptoethanol (2-ME, WAKO Cat #139-06861, Osaka, Japan), 0.5 mM L-glutamine (Invitrogen Corp. Cat #25030-081, Carlsbad, Calif., USA), and Antibiotics-Antimycotics (Invitrogen Corp. Cat #15240-062, Carlsbad, Calif., USA) was used as the medium (Neurobasal/B27/2-ME). However, the above Neurobasal medium not supplemented with 2-ME (Neurobasal/B27) was used for the assay. The cells were redispersed by mild pipetting of the cell mass to which the medium was added. The cell dispersion was filtered through a 40-μm nylon mesh (Cell Strainer, Cat #35-2340, Becton Dickinson Labware, Franklin Lakes, N.J., USA) to remove the remaining cell mass, and thus a neuronal cell suspension was obtained. The neuronal cell suspension was diluted with the medium and then plated in a volume of 100 μl/well at an initial cell density of 5×10^5 cells/cm^2 in a 96-well polystyrene culture plate pre-coated with poly-L or D-lysine (Falcon Cat #35-3075, Becton Dickinson Labware, Franklin Lakes, N.J., USA coated with poly-L-lysine using the method shown below, or BIOCOAT™ cell environments Poly-D-lysine cell ware 96-well plate, Cat #35-6461, Becton Dickinson Labware, Franklin Lakes, N.J., USA). Poly-L-lysine coating was carried out as follows. 100 μg/ml of a poly-L-lysine (SIGMA P2636, St. Louis, Mo., USA) solution was aseptically prepared with a 0.15 M borate buffer (pH 8.5). 100 μl/well of the solution was added to the 96-well polystyrene culture plate and incubated at room temperature for one or more hours or at 4° C. overnight or longer. The coated 96-well polystyrene culture plate was washed with sterile water four or more times, and then dried or rinsed with, for example, sterile PBS or medium, and used for cell plating. The plated cells were cultured in the culture plate at 37° C. in 5% CO2-95% air for one day. Then, the total amount of the medium was replaced with a fresh Neurobasal™/B27/2-ME medium, and then the cells were cultured for further three days.\n(§4) The drug was added to the culture plate on Day 4 of culture as follows. The total amount of the medium was removed from the wells, and 180 μl/well of Neurobasal medium not containing 2-ME and containing 2% B-27 (Neurobasal/B27) was added thereto. A solution of the test compound in dimethyl sulfoxide (hereinafter abbreviated as DMSO) was diluted with Neurobasal/B27 at 10-fold of the final concentration. 20 μl/well of the dilution was added to and sufficiently mixed with the medium. The final DMSO concentration was 1% or less. Only DMSO was added to the control group.\n(§5) The cells were cultured for three days after addition of the compound, and the total amount of the medium was collected. […]", "values": [
      {"smiles": "COc1cc(/C=C/c2nc3n(n2)CCC[C@@H]3C2CCOCC2)ccc1-n1cnc(C)c1", "note": "(single isomer, unassigned) [Example 116, (−)-2-{(E)-2-[3-methoxy-4-(4-methyl-1H-imidazol-1-yl)phenyl]vinyl}-8-(tetrahydropyran-4-yl)-5,6,7,8-tetrahydro[1,2,4]triazolo[1,5-a]pyridine]", "pIC50": 6.76},
      {"smiles": "COc1nc(/C=C/c2nc3n(n2)CCCC3c2cc(F)cc(F)c2)ccc1-n1cnc(C)c1", "note": "(single isomer, unassigned; (-)) [Example 337, (−)-8-(3,5-difluorophenyl)-2-{(E)-2-[6-methoxy-5-(4-methyl-1H-imidazol-1-yl)pyridin-2-yl]vinyl}-5,6,7,8-tetrahydro[1,2,4]triazolo[1,5-a]pyridine]", "pIC50": 7.89},
      {"smiles": "COc1nc(/C=C/c2nc3n(n2)CCC3c2ccccc2C(F)(F)F)ccc1-n1cnc(C)c1", "note": "(stereo not shown) [Example 390, 2-{(E)-2-[6-methoxy-5-(4-methyl-1H-imidazol-1-yl)pyridin-2-yl]vinyl}-7-(2-trifluoromethylphenyl)-6,7-dihydro-5H-pyrrolo[1,2-b][1,2,4]triazole]", "pIC50": 7.59},
      {"smiles": "COc1cc(/C=C/c2nc3n(n2)CCC[C@]3(C#N)c2cc(F)c(F)c(F)c2)ccc1-n1cnc(C)c1", "note": "(single isomer, unassigned) [Example 72, (−)-2-{(E)-2-[3-methoxy-4-(4-methyl-1H-imidazol-1-yl)phenyl]vinyl}-8-(3,4,5-trifluorophenyl)-5,6,7,8-tetrahydro[1,2,4]triazolo[1,5-a]pyridine-8-carbonitrile]", "pIC50": 7.59},
      {"smiles": "COc1nc(/C=C/c2nc3n(n2)CCC3c2cc(F)ccc2C(F)(F)F)ccc1-n1cnc(C)c1", "note": "(stereo not shown) [Example 392, 7-(5-fluoro-2-trifluoromethylphenyl)-2-{(E)-2-[6-methoxy-5-(4-methyl-1H-imidazol-1-yl)pyridin-2-yl]vinyl}-6,7-dihydro-5H-pyrrolo[1,2-b][1,2,4]triazole]", "pIC50": 7.66},
      {"smiles": "COc1cc(/C=C/c2nc3n(n2)CCC[C@]3(O)c2ccc(C(C)C)cc2)ccc1-n1cnc(C)c1", "note": "(single isomer, unassigned) [Example 55, (−)-8-(4-isopropylphenyl)-2-{(E)-2-[3-methoxy-4-(4-methyl-1H-imidazol-1-yl)phenyl]vinyl}-5,6,7,8-tetrahydro[1,2,4]triazolo[1,5-a]pyridin-8-ol]", "pIC50": 7.55},
      {"smiles": "COc1nc(/C=C/c2nc3n(n2)CCCC3c2ccccc2Br)ccc1-n1cnc(C)c1", "note": "(single isomer, unassigned; (-)) [Example 290, (−)-8-(2-bromophenyl)-2-{(E)-2-[6-methoxy-5-(4-methyl-1H-imidazol-1-yl)pyridin-2-yl]vinyl}-5,6,7,8-tetrahydro-[1,2,4]triazolo[1,5-a]pyridine]", "pIC50": 7.80},
      {"smiles": "COc1nc(/C=C/c2nc3n(n2)CCCC3c2ccccc2OC(F)(F)F)ccc1-n1cnc(C)c1", "note": "(single isomer, unassigned; (-)) [Example 283, (−)-8-(2-trifluoromethoxyphenyl)-2-{(E)-2-[6-methoxy-5-(4-methyl-1H-imidazol-1-yl)pyridin-2-yl]vinyl}-5,6,7,8-tetrahydro-[1,2,4]triazolo[1,5-a]pyridine]", "pIC50": 7.57},
      {"smiles": "COc1nc(/C=C/c2nc3n(n2)CC[C@@H]3c2cc(F)c(F)c(F)c2)ccc1-n1cnc(C)c1", "note": "(single isomer, unassigned) [Example 254, (−)-2-{(E)-2-[6-methoxy-5-(4-methyl-1H-imidazol-1-yl)pyridin-2-yl]vinyl}-7-(3,4,5-trifluorophenyl)-6,7-dihydro-5H-pyrrolo[1,2-b][1,2,4]triazole]", "pIC50": 7.30},
      {"smiles": "COc1nc(/C=C/c2nc3n(n2)CCCC3c2ccccc2C)ccc1-n1cnc(C)c1", "note": "(single isomer, unassigned; (-)) [Example 319, (−)-2-{(E)-2-[6-methoxy-5-(4-methyl-1H-imidazol-1-yl)pyridin-2-yl]vinyl}-8-(o-tolyl)-5,6,7,8-tetrahydro[1,2,4]triazolo[1,5-a]pyridine]", "pIC50": 7.82},
      {"smiles": "COc1cc(/C=C/c2nc3n(n2)CCCC3c2cccs2)ccc1-n1cnc(C)c1", "note": "(single isomer, unassigned; (-)) [Example 10, (−)-2-{(E)-2-[3-methoxy-4-(4-methyl-1H-imidazol-1-yl)phenyl]vinyl}-8-thiophen-2-yl-5,6,7,8-tetrahydro[1,2,4]triazolo[1,5-a]pyridine]", "pIC50": 7.48},
      {"smiles": "COc1cc(/C=C/c2nc3n(n2)CCC3c2ccccc2C(F)(F)F)ccc1-n1cnc(C)c1", "note": "(single isomer, unassigned; (-)) [Example 317, (−)-2-{(E)-2-[3-methoxy-4-(4-methyl-1H-imidazol-1-yl)phenyl]vinyl}-7-(2-trifluoromethylphenyl)-6,7-dihydro-5H-pyrrolo[1,2-b][1,2,4]triazole]", "pIC50": 7.60},
      {"smiles": "COc1cc(/C=C/c2nc3n(n2)CC[C@H](O)[C@H]3c2cc(F)c(F)c(F)c2)ccc1-n1cnc(C)c1", "note": "[Example 103, (7S,8S)-2-{(E)-2-[3-methoxy-4-(4-methyl-1H-imidazol-1-yl)phenyl]vinyl}-8-(3,4,5-trifluorophenyl)-5,6,7,8-tetrahydro-[1,2,4]triazolo[1,5-a]pyridin-7-ol]", "pIC50": 7.49},
      {"smiles": "COc1cc(/C=C/c2nc3n(n2)CCC/C3=C\\c2ccccc2)ccc1-n1cnc(C)c1", "note": "[Example 12, 2-{(E)-2-[3-methoxy-4-(4-methyl-1H-imidazol-1-yl)phenyl]vinyl}-8-[1-phenylmethy-(E)-lidene]-5,6,7,8-tetrahydro[1,2,4]triazolo[1,5-a]pyridine]", "pIC50": 6.87},
      {"smiles": "COc1cc(/C=C/c2nc3n(n2)CCCC3c2ccc(SC)cc2)ccc1-n1cnc(C)c1", "note": "(single isomer, unassigned; (-)) [Example 7, (−)-2-{(E)-2-[3-methoxy-4-(4-methyl-1H-imidazol-1-yl)phenyl]vinyl}-8-(4-methylsulfanylphenyl)-5,6,7,8-tetrahydro-[1,2,4]triazolo[1,5-a]pyridine]", "pIC50": 7.52},
      {"smiles": "CCCCC(=O)c1ccc(C2CCCn3nc(/C=C/c4ccc(-n5cnc(C)c5)c(OC)c4)nc32)cc1", "note": "(single isomer, unassigned; (-)) [Example 3, (−)-1-{4-{2-{(E)-2-[3-methoxy-4-(4-methyl-1H-imidazol-1-yl)phenyl]vinyl}-5,6,7,8-tetrahydro[1,2,4]triazolo[1,5-a]pyridin-8-yl}phenyl}pentan-1-one]", "pIC50": 7.32},
      {"smiles": "COc1cc(/C=C/c2nc3n(n2)CCCC3c2ccc(C(C)C)cc2)ccc1-n1cnc(C)c1", "note": "(single isomer, unassigned; (-)) [Example 5, (−)-8-(4-isopropylphenyl)-2-{(E)-2-[3-methoxy-4-(4-methyl-1H-imidazol-1-yl)phenyl]vinyl}-5,6,7,8-tetrahydro[1,2,4]triazolo[1,5-a]pyridine]", "pIC50": 7.68},
      {"smiles": "COc1nc(/C=C/c2nc3n(n2)CCCC3c2ccc(F)c(F)c2)ccc1-n1cnc(C)c1", "note": "(single isomer, unassigned) [Example 171, (−)-8-(3,4-difluorophenyl)-2-{(E)-2-[6-methoxy-5-(4-methyl-1H-imidazol-1-yl)pyridin-2-yl]vinyl}-5,6,7,8-tetrahydro-[1,2,4]triazolo[1,5-a]pyridine]", "pIC50": 7.77}
    ]},
    {"system": "Aβ42 production", "assay": "Quantification of Aβ peptide in culture of neurons from rat fetus brain (Aβ ELISA)", "type": "cell-based", "details": "rat primary neuronal culture (embryonic day 18 Wistar rat cerebral cortex); cultured three days after addition of compound; Aβx-42 ELISA of the medium; read-out: Aβ42 production reducing effect IC50", "procedure": "as §1, §2, §3, §4, §5", "values": [
      {"smiles": "COc1nc(/C=C/c2nc3n(n2)CCC[C@H]3c2ccc(F)c(F)c2F)ccc1-n1cnc(C)c1", "note": "[Example 339, (S)-2-{(E)-3-[6-methoxy-5-(4-methyl-1H-imidazol-1-yl)pyridin-2-yl]vinyl}-8-(2,3,4-trifluorophenyl)-5,6,7,8-tetrahydro-[1,2,4]triazole[1,5-a]pyridine]", "pIC50": 7.68}
    ]}
  ]
}
